Where two headings read alike, the source gives them in different places.
Tests used:
[1] = target: T1, recombinant human UCK2 (Homo sapiens, UniProt Q9BZX2); assay: In vitro enzyme activity assay with recombinant human UCK2 (PK/LDH-coupled, UV 340 nm); type: biochemical; conditions: for UCK2 substrate or not (ATP consumption): 250 μM analog in the presence of 50 μM uridine
T1 construct: 6xHis (C); made in house; host or cells: E. coli BL21(DE3)
T1 sequence (Q9BZX2 1-261): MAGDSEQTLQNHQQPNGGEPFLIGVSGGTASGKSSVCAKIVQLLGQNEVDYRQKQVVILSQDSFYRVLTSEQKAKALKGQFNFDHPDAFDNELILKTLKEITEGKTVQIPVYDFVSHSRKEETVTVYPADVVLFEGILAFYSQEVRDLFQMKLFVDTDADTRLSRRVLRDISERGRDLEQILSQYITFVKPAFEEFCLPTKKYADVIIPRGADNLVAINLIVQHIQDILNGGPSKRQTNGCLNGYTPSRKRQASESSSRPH
Source text: (§1) In order to guide our SAR studies, we developed an enzymatic assay to evaluate the inhibitory effect of each CPU analog against recombinant human UCK2, which was expressed and purified in E. coli. A continuous assay system was optimized by coupling UCK2 activity to the pyruvate kinase (PK) reaction, which in turn was coupled to lactate dehydrogenase (LDH). Overall reaction progress was continuously monitored by detecting the UV absorption change at 340 nm, which was correlated with the ATP consumption by UCK2. The effect of 250 μM of each CPU analog on UCK2 activity was evaluated in the presence of 50 μM uridine. […] We then individually measured the steady state kinetic parameters of UCK2 using uridine, CPU and 5-F-CPU as substrates. Their KM values were 86, 25, and 41 μM, and their kcat/KM values were 2.6×10^5, 1.5×10^5, and 7.3×10^4 s^−1 M^−1 (FIG. 5B).
(§2) Cloning, expression and purification of recombinant human UCK2 and CMPK1: Uridine cytidine kinase 2 (UCK2) was cloned into the pET-21a(+) vector using Ndel and Notl as restriction sites. […] The resulting plasmid was transformed into E. coli BL21(DE3) cells by electroporation, recovered in SOC at 37° C. for 1 h and plated onto LB agar plates with kanamycin overnight at 37° C. A single, isolated colony was inoculated into 30 mL LB supplemented with 50 μg/mL kanamycin and grown at 37° C. with shaking for 15 h. The next day, these cells were used to inoculate 1 L autoclaved LB with 50 μg/mL kanamycin. The flask was shaken at 37° C. When an optical density (OD600) of 0.7 was reached, protein expression was induced with 0.5 mM isopropyl β-D-1-thiogalactopyranoside (IPTG). The temperature was changed to 18° C. and flasks were shaken for an additional 15 h. The cell pellets were collected by spinning the media at 5000 rpm for 10 min. The pellets obtained were frozen by liquid nitrogen and stored in −80° C. for protein purification. Cell pellets were thawed and resuspended in lysis buffer containing Tris (40 mM, pH 7.5), NaCl (10 mM), imidazole (10 mM), DTT (1 mM). Cells were lysed by sonication and centrifuged at 25,000 g for 1 h. The supernatant was incubated with a slurry of Ni-NTA resin for 1 h at 4° C. and loaded onto a column. The nickel column wash buffer was Tris (40 mM, pH 7.5), NaCl (10 mM), DTT (1 mM) and each wash step contained increasing concentrations of imidazole (10, 50, or 250 mM). After SDS-PAGE confirmation of the protein fractions, protein was further purified using fast protein liquid chromatography (FPLC) using buffer A (50 mM Tris-HCl pH 8, 1 mM dithiothreitol (DTT), 10% glycerol) and elution buffer B (50 mM Tris-HCl pH 8, 1mM dithiothreitol (DTT), 10% glycerol with 500 mM NaCl) with changing gradient over a 20 minute from 2% to 100% Buffer B. FPLC eluents containing the protein was concentrated using Am icon centrifugal filter with 3K cut-off and the enzyme was stored in storage buffer (50 mM Tris-HCl pH 7.5, 10% glycerol). Human cytidine monophosphate kinase 1 (CMPK1) was purified as previously described (Deans et al., 2016).
(§3) In vitro enzyme activity assays with recombinant human UCK2: To continuously monitor reaction progress spectrophotometrically, ATP hydrolysis was coupled to NADH oxidation via pyruvate kinase (PK) and lactate dehydrogenase (LDH). Reactions were conducted at room temperature in 100 μL in 96-well plates (Greiner Bio-One, UV-Star, Half Area). Mixtures contained 20 mM HEPES (pH 7.2), 100 mM KCl, 2 mM MgCl2, 300 μM ATP, 0-500 μM uridine, 0-500 μM CPU analogs, 10 nM UCK2, 1 mM phosphoenolpyruvate, 500 μM NADH and 20 units/mL of PK and LDH. Progress was monitored in the linear region using a Biotek Synergy HT and kinetic and inhibition constants were determined using GraphPad Prism 7 (GraphPad Software).

[2] = system: DENV-2 virus; assay: DENV antiviral assay, DENV-Luc replication in A549 cells (FIGS. 8 and 9); type: cell-based, dengue serotype 2 (DENV-2) strain 16681
Protocol: DENV-Luc reporter virus generation: The design of the pDENV-Luc infectious clone derived from dengue serotype 2 (DENV-2) strain 16681 was described in detail by Marceau et al (Marceau et al., 2016). The plasmid was linearized with Xbal and in vitro transcribed into the genomic RNA of DENV-Luc virus using the T7 Megascript Kit (Ambion) in the presence of m7G(5′)ppp(5′)G RNA Cap Structure Analog (NEB). 5 μg DENV-Luc RNA was electroporated into 2×10^6 Vero cells. The transfected cells were resuspended with Dulbecco's modified Eagle's medium (DMEM; Invitrogen) with 10% FBS and 100 U/ml penicillin-streptomycin and transferred into a T-175 flask incubated at 37° C. with 5% CO2. Supernatants were collected and replenished with fresh medium every 24 h from day 17 to 24 post-transfection, pooled together, clarified by centrifugation and stored in aliquots at −80° C. The amount of infectious DENV-Luc virus in the stock was titrated using the TCID50 assay and calculated by the Spearman & Kärber algorithm as described previously (Hierholzer and Killington, 1996).
DENV antiviral assays (For FIGS. 8 and 9): A549 cells were plated overnight at 5,000 cells/well in 96-well plates in complete DMEM and incubated for 24 h at 37° C. Cells were then treated with pyrimidine de novo synthesis inhibitors, and/or salvage inhibitors, and/or R1479 in DMEM supplemented with 20 μM uridine. Four hours after drug addition, cells were infected with DENV-2 virus at a MOI=0.1. After 72 h, DENV-Luc replication was monitored by the production of Renilla luciferase, which was measured using the Renilla-Glo Luciferase Assay System (Promega) according to the specifications of the manufacturer. For the accompanying cell viability assay, A549 cells were seeded at 5,000 cells/well in 96-well plates in complete DMEM and incubated for 24 h at 37° C. Cell were then treated with pyrimidine de novo synthesis inhibitors, and/or salvage inhibitors, and/or R1479 in DMEM supplemented with 20 μM uridine. Following 48 h treatment, cell viability was monitored by ATP levels, which was measured using the CellTiter-Glo Luciferase Assay System (Promega) according to the specifications of the manufacturer.

[3] = substrate: O=c1[nH]c(=O)n([C@@H]2C=C(CO)[C@@H](O)[C@H]2O)cc1F; assay: In vitro enzyme activity assay with recombinant human UCK2 (PK/LDH-coupled, UV 340 nm); type: biochemical; conditions: other: steady state kinetic parameters of UCK2 with the compound as substrate
Source text: as §1, §2, §3

[4] = substrate: O=c1ccn([C@@H]2O[C@H](CO)[C@@H](O)[C@H]2O)c(=O)[nH]1; assay: as above; type: biochemical; conditions: other: steady state kinetic parameters of UCK2 with the compound as substrate
Source text: as §1, §2, §3

[5] = substrate: O=c1ccn([C@@H]2C=C(CO)[C@@H](O)[C@H]2O)c(=O)[nH]1; assay: as above; type: biochemical; conditions: other: steady state kinetic parameters of UCK2 with the compound as substrate
Source text: as §1, §2, §3

For CC1=C[C@@H](n2ccc(=O)[nH]c2=O)[C@H](O)[C@@H]1O [5′-deoxy-CPU, 1-((1R,4R,5S)-4,5-dihydroxy-3-methylcyclopent-2-en-1-yl)pyrimidine-2,4(1H,3H)-dione], the “UCK2 substrate or not (ATP consumption)” value [1] was “inhibitors but not substrates” and the Ki ([1]; competitive inhibitors of UCK2, Lineweaver-Burk analysis) was 230 µM.

O=c1[nH]c(=O)n([C@@H]2C=C(CO)[C@@H](O)[C@H]2O)cc1F [5-F-CPU, 1-((1R,4R,5S)-4,5-dihydroxy-3-(hydroxymethyl)cyclopent-2-en-1-yl)-5-fluoropyrimidine-2,4(1H,3H)-dione] was tested, and the “UCK2 substrate or not (ATP consumption)” value [1] was “substrates of UCK2” and the “rate of UMP synthesis” value ([1]; added to assay mixture containing UCK2, uridine (50 μM) and ATP) was “dose-dependent decrease”.

With [N-]=[N+]=N[C@]1(CO)O[C@@H](n2ccc(N)nc2=O)[C@H](O)[C@@H]1O [R1479, 4′-azidocytidine] the “influence of GSK983 alone on the antiviral activity of R1479” value ([2]; 1 μM GSK983 added, no CPU, 20 μM uridine) was “negligible influence”, the EC50 ([2]; Dengue virus, DENV2, A549, 20 μM uridine, without GSK983 and CPU, read-out: EC50, inhibition of dengue virus replication, R1479 as single agent) was roughly 35 µM and the EC50 ([2]; Dengue virus, DENV2, A549, in the presence of 250 μM CPU and 1 μM GSK983, 20 μM uridine, read-out: EC50 of R1479 in combination) was no more than 8 µM. The EC50 ([2]; in the presence of 250 μM CPU and 1 μM GSK983, 20 μM uridine, read-out: EC50 of R1479 in combination) was roughly 8 µM.

B1: recombinant human UCK2 (Homo sapiens) (protein)
chain: MAGDSEQTLQNHQQPNGGEPFLIGVSGGTASGKSSVCAKIVQLLGQNEVDYRQKQVVILSQDSFYRVLTSEQKAKALKGQFNFDHPDAFDNELILKTLKEITEGKTVQIPVYDFVSHSRKEETVTVYPADVVLFEGILAFYSQEVRDLFQMKLFVDTDADTRLSRRVLRDISERGRDLEQILSQYITFVKPAFEEFCLPTKKYADVIIPRGADNLVAINLIVQHIQDILNGGPSKRQTNGCLNGYTPSRKRQASESSSRPH
notes: 6xHis (C); made in house; host or cells: E. coli BL21(DE3)
Molecule B1 has a Km [3] of 41 µM, a kcat/Km [3] of 73000 M⁻¹ s⁻¹ and a Km [4] of 86 µM. It also gave a kcat/Km [4] of 260000 M⁻¹ s⁻¹, a Km [5] of 25 µM and a kcat/Km [5] of 150000 M⁻¹ s⁻¹.
